According to patent publication US20260193264A1, “BENZOYPARAZINE PYRAZINES AND THEIR USES” (FOGHORN THERAPEUTICS INC., priority 2022, published 2026):

Experiments:
[1] = molecular target: T1, HiBit-BRG1 fusion protein in stable HeLa cell line expressing HiBit-BRG1 and LgBit (Homo sapiens, UniProt P51532); assay: HiBiT-BRG1 cell-based degradation assay (Nano-Glo HiBiT, 24 h); conditions: HeLa HiBit-BRG1/LgBit cells; for DC50: read-out: BRMG1 HiBit Degradation IC50; for Dmax: top dose 30 μM, read-out: BRG1 HiBit Degradation Maximum (%)
T1 construct: expressed in transfected cells
T1 sequence (P51532 whole entry, the tested form may be a part): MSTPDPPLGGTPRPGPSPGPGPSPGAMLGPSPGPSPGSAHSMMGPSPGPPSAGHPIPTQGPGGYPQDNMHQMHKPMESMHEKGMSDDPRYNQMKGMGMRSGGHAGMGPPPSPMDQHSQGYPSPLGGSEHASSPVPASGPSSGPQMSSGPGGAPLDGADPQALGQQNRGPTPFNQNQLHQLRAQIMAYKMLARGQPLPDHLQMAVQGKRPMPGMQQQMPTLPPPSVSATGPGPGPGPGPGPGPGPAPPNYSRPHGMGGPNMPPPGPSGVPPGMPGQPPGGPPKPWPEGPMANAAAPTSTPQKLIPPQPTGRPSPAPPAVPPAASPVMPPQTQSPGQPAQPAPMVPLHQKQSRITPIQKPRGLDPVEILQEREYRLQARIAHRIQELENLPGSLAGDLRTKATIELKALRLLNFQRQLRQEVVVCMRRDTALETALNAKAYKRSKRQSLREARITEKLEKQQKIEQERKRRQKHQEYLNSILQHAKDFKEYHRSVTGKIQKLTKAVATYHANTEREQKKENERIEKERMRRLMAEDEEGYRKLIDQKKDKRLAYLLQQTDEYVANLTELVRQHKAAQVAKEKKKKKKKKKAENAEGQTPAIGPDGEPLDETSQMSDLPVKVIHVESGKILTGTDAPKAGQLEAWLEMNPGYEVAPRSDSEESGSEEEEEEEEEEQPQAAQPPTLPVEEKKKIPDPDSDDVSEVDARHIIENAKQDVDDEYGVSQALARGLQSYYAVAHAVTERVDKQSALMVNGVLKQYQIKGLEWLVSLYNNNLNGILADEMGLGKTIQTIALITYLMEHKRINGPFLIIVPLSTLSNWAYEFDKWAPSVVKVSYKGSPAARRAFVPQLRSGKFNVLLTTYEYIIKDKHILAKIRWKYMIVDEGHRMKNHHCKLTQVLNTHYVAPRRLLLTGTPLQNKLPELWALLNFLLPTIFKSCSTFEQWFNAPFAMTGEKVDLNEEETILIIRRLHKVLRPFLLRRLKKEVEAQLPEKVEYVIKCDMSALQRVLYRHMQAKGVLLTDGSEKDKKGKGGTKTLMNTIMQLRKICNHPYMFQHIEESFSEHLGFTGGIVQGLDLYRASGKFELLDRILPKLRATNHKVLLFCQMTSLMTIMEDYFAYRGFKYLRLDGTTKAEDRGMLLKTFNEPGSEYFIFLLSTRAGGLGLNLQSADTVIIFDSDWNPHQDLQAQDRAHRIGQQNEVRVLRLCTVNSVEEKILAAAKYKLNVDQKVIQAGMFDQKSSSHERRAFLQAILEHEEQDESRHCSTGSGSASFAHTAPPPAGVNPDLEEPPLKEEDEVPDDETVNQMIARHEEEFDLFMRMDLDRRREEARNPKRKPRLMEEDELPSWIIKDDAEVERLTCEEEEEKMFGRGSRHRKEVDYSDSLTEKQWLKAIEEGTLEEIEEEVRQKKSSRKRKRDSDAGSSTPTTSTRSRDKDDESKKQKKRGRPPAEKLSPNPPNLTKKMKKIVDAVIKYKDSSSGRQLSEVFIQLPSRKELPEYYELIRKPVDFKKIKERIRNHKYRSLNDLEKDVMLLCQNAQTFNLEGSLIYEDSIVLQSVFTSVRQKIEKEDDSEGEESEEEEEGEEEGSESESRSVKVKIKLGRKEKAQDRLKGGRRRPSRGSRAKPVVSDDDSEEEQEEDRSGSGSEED
Procedure: Procedure: A stable HeLa cell line expressing HiBiT-BRM was generated. On day 0, 5000 cells were seeded in 40 μL of media into each well of 384-well cell culture plates. […] Subsequently plates were incubated for 24 h in a standard tissue culture incubator and equilibrated at room temperature for 15 minutes. Nano-Glo HiBiT Lytic Detection System (Promega N3050) reagent was freshly prepared and 20 ul was added to each well. Upon addition of this LgBit-containing reagent, the HiBiT and LgBiT proteins associate to form the luminescent NanoBiT luciferase. The plates were shaken for 10 minutes at room temperature and the bioluminescence read using an EnVision plate reader (PerkinElmer). For measurement of BRG1 degradation, a stable HeLa cell line expressing HiBit-BRG1 and LgBit was generated. The same protocol as above was then followed. The degradation % was calculated using the following formula: % degradation=100%−100%×(Lumsample−LumLC)/(LumHC−LumLC). DMSO treated cells are employed as High Control (HC) and 2 μM of a known BRM/BRG1 degrader standard treated cells are employed as Low Control (LC).

[2] = molecular target: T2, HiBiT-BRM fusion protein in stable HeLa cell line (Homo sapiens, UniProt P51531); assay: HiBiT-BRM cell-based degradation assay (Nano-Glo HiBiT Lytic Detection, 24 h); set-up: DC50: scale not given here; conditions: HeLa HiBiT-BRM cells; for DC50: read-out: BRM HiBit Degradation IC50; for BRM HiBit Degradation Maximum (%): top dose 30 μM
T2 construct: expressed in transfected cells
T2 sequence (P51531 whole entry, the tested form may be a part): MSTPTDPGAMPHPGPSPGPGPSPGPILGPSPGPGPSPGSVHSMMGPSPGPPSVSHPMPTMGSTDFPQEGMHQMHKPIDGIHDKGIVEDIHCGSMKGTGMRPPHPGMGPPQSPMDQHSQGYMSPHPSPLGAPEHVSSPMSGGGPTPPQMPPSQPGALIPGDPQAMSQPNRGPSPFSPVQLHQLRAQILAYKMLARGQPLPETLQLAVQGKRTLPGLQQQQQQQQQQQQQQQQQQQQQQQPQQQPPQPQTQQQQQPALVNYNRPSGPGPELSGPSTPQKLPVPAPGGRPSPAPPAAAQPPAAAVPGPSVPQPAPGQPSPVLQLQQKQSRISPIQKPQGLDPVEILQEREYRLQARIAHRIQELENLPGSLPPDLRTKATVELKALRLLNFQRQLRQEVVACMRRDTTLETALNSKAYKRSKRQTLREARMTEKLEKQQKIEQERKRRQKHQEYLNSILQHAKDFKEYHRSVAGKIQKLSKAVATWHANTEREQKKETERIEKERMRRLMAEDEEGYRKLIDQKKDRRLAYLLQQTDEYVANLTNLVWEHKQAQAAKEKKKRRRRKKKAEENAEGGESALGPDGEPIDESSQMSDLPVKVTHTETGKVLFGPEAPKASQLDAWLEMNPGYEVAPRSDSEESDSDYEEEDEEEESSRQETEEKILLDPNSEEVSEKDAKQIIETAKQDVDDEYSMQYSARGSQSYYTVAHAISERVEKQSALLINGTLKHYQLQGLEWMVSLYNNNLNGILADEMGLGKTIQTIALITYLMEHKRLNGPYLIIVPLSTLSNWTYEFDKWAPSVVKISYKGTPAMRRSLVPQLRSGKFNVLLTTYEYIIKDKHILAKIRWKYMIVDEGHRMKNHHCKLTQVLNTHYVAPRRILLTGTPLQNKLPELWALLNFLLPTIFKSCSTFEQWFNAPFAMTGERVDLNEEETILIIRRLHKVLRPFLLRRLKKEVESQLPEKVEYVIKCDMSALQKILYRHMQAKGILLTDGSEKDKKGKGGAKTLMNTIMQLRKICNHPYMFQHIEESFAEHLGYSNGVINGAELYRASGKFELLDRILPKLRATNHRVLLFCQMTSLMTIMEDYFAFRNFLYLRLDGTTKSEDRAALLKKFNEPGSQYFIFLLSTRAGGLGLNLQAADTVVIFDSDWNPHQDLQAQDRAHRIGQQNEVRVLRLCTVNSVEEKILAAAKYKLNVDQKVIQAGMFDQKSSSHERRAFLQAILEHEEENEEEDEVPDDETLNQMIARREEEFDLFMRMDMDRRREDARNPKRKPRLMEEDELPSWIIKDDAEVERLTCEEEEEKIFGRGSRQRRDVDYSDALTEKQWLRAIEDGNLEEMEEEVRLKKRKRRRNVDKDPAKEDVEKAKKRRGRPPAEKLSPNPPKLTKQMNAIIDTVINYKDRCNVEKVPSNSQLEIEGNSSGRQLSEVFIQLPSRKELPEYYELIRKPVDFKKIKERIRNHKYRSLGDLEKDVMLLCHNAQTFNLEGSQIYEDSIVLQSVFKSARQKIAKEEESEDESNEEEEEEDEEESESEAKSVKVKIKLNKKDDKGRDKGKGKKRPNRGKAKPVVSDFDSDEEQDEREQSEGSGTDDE
Procedure: Procedure: A stable HeLa cell line expressing HiBiT-BRM was generated. On day 0, 5000 cells were seeded in 40 μL of media into each well of 384-well cell culture plates. On day 1, cells were treated with 120 nL DMSO or 120 nL of 3-fold serially DMSO-diluted compounds (10 points in duplicate with 30 μM as final top dose). Subsequently plates were incubated for 24 h in a standard tissue culture incubator and equilibrated at room temperature for 15 minutes. Nano-Glo HiBiT Lytic Detection System (Promega N3050) reagent was freshly prepared and 20 ul was added to each well. Upon addition of this LgBit-containing reagent, the HiBiT and LgBiT proteins associate to form the luminescent NanoBiT luciferase. The plates were shaken for 10 minutes at room temperature and the bioluminescence read using an EnVision plate reader (PerkinElmer).
The degradation % was calculated using the following formula: % degradation=100%−100%×(Lumsample−LumLC)/(LumHC−LumLC). DMSO treated cells are employed as High Control (HC) and 2 μM of a known BRM/BRG1 degrader standard treated cells are employed as Low Control (LC).

Structure (SMILES) | DC50 [1] | Dmax [1] | DC50 [2] | BRM HiBit Degradation Maximum (%) [2]
Cc1ncsc1-c1ccc([C@H](C)NC(=O)[C@@H]2C[C@@H](O)CN2C(=O)[C@@H](c2cc(N3CC4(CN(c5ccc6cc(-c7ccccc7O)nnc6c5)C4)C3)no2)C(C)C)cc1 (single isomer, unassigned) [Compound 51] | – | – | < 10 nM | A (“A” indicates maximum degradation ≥75%)
Cc1ncsc1-c1ccc([C@H](C)NC(=O)[C@@H]2C[C@@H](O)CN2C(=O)[C@@H](c2cc(N3CC4(CN(c5ccc6cc(-c7ccccc7O)nnc6c5)C4)C3)n(C)n2)C(C)C)cc1 (single isomer, unassigned) [Compound 194] | – | < 50% | > 100 nM | A (“A” indicates maximum degradation ≥75%)
Cc1ncsc1-c1ccc([C@H](C)NC(=O)[C@@H]2C[C@@H](O)CN2C(=O)[C@H](C2CC2)n2cc(N3CC4(CN(c5ccc6cc(-c7ccccc7O)nnc6c5)C4)C3)nn2)cc1 (single isomer, unassigned) [Compound 210] | – | – | < 10 nM | A (“A” indicates maximum degradation ≥75%)
Cc1ncsc1-c1ccc(C(C)NC(=O)C2CC(O)CN2C(=O)[C@@H](c2cc(N3CCN([C@H]4CCN(Cc5cc6nnc(-c7ccccc7O)cc6cc5Cl)CC4(F)F)CC3)no2)C(C)C)cc1 (stereo in doubt) [Compound 216, (2R,4S)-1-((R)-2-(3-(4-((S)-1-((6-chloro-3-(2-hydroxyphenyl)cinnolin-7-yl)methyl)-3,3-difluoropiperidin-4-yl)piperazin-1-yl)isoxazol-5-yl)-3-methylbutanoyl)-4-hydroxy-N-((R)-1-(4-(4-methylthiazol-5-yl)phenyl)ethyl)pyrrolidine-2-carboxamide] | – | < 50% | > 10 nM | A (“A” indicates maximum degradation ≥75%)
Cc1ncsc1-c1ccc([C@H](C)NC(=O)[C@@H]2C[C@@H](O)CN2C(=O)[C@@H](c2cc(OCCN3CC(c4ccc5nnc(-c6ccccc6O)cc5c4)C3)no2)C(C)C)cc1 [Compound 1, (2S,4R)-4-hydroxy-1-[(2R)-2-[3-(2-{3-[3-(2-hydroxyphenyl)cinnolin-6-yl]azetidin-1-yl}ethoxy)-1,2-oxazol-5-yl]-3-methylbutanoyl]-N-[(1S)-1-[4-(4-methyl-1,3-thiazol-5-yl)phenyl]ethyl]pyrrolidine-2-carboxamide] | – | < 50% | > 10 nM | B (“B” indicates maximum degradation ≥50%)
Cc1ncsc1-c1ccc([C@H](C)NC(=O)[C@@H]2C[C@@H](O)CN2C(=O)[C@@H](c2cc(N3CCC(CN4CC(c5ccc6nnc(-c7ccccc7O)cc6c5)C4)CC3)no2)C(C)C)cc1 [Compound 2, (2S,4R)-4-hydroxy-1-((R)-2-(3-(4-((3-(3-(2-hydroxyphenyl)cinnolin-6-yl)azetidin-1-yl)methyl)piperidin-1-yl)isoxazol-5-yl)-3-methylbutanoyl)-N-((S)-1-(4-(4-methylthiazol-5-yl)phenyl)ethyl)pyrrolidine-2-carboxamide] | – | < 50% | > 10 nM | A (“A” indicates maximum degradation ≥75%)

Further lines, with some results ahead:

DC50 [1] | Dmax [1] | DC50 [2] | Structure (SMILES) | BRM HiBit Degradation Maximum (%) [2]
> 10 nM | > 75% | < 10 nM | Cc1ncsc1-c1ccc([C@H](C)NC(=O)[C@@H]2C[C@@H](O)CN2C(=O)C(c2cc(-c3cnc(N4CCC5(CC4)CC(c4ccc6cc(-c7ccccc7O)nnc6c4)C5)nc3)no2)C(C)C)cc1 (mixture of isomers) [Compound 65, (2S,4R)-4-hydroxy-1-(2-(3-(2-(2-(3-(2-hydroxyphenyl)cinnolin-7-yl)-7-azaspiro[3.5]nonan-7-yl)pyrimidin-5-yl)isoxazol-5-yl)-3-methylbutanoyl)-N-((S)-1-(4-(4-methylthiazol-5-yl)phenyl)ethyl)pyrrolidine-2-carboxamide] | A (“A” indicates maximum degradation ≥75%)
< 10 nM | > 75% | < 10 nM | Cc1ncsc1-c1ccc([C@H](C)NC(=O)[C@@H]2C[C@@H](O)CN2C(=O)[C@@H](c2cn(-c3ccc4nnc(-c5ccccc5O)cc4c3)nn2)C(C)C)cc1 (single isomer, unassigned) [Compound 161] | A (“A” indicates maximum degradation ≥75%)
< 10 nM | > 75% | < 10 nM | Cc1ncsc1-c1ccc([C@H](C)NC(=O)[C@@H]2C[C@@H](O)CN2C(=O)[C@@H](c2cc(N3CCC4(CC3)CC(Oc3ccc5nnc(-c6ccccc6O)cc5c3)C4)no2)C(C)C)cc1 (single isomer, unassigned) [Compound 185] | A (“A” indicates maximum degradation ≥75%)
< 10 nM | > 75% | < 10 nM | Cc1ncsc1-c1ccc([C@H](C)NC(=O)[C@@H]2C[C@@H](O)CN2C(=O)[C@@H](c2cc(C3CC4(C3)CN(c3ccc5nnc(-c6ccccc6O)cc5c3)C4)no2)C(C)C)cc1 (single isomer, unassigned) [Compound 200] | A (“A” indicates maximum degradation ≥75%)
< 10 nM | > 75% | < 10 nM | Cc1ncsc1-c1ccc([C@H](C)NC(=O)[C@@H]2C[C@@H](O)CN2C(=O)C(c2cc(N3CCC4(CCC(c5ccc6nnc(-c7ccccc7O)cc6c5)CC4)CC3)no2)C(C)C)cc1 (stereo in doubt) [Compound 63, (2S,4R)-4-hydroxy-1-((S)-2-(3-(9-(3-(2-hydroxyphenyl)cinnolin-6-yl)-3-azaspiro[5.5]undecan-3-yl)isoxazol-5-yl)-3-methylbutanoyl)-N-((S)-1-(4-(4-methylthiazol-5-yl)phenyl)ethyl)pyrrolidine-2-carboxamide] | A (“A” indicates maximum degradation ≥75%)
– | < 50% | < 10 nM | Cc1ncsc1-c1ccc(C(C)NC(=O)C2CC(O)CN2C(=O)[C@@H](c2cc(N3CCN([C@@H]4CCN(Cc5cc6nnc(-c7ccccc7O)cc6cc5Cl)CC4(F)F)CC3)no2)C(C)C)cc1 (stereo in doubt) [Compound 215, (2R,4S)-1-((R)-2-(3-(4-((R)-1-((6-chloro-3-(2-hydroxyphenyl)cinnolin-7-yl)methyl)-3,3-difluoropiperidin-4-yl)piperazin-1-yl)isoxazol-5-yl)-3-methylbutanoyl)-4-hydroxy-N-((R)-1-(4-(4-methylthiazol-5-yl)phenyl)ethyl)pyrrolidine-2-carboxamide] | A (“A” indicates maximum degradation ≥75%)
> 10 nM | > 50% | < 10 nM | Cc1ncsc1-c1ccc([C@H](C)NC(=O)[C@@H]2C[C@@H](O)CN2C(=O)C(F)(c2cc(N3CC4(CN(c5ccc6cc(-c7ccccc7O)nnc6c5)C4)C3)no2)C(C)C)cc1 (stereo in doubt) [Compound 221, (2S,4R)-1-((R)-2-fluoro-2-(3-(6-(3-(2-hydroxyphenyl)cinnolin-7-yl)-2,6-diazaspiro[3.3]heptan-2-yl)isoxazol-5-yl)-3-methylbutanoyl)-4-hydroxy-N-((S)-1-(4-(4-methylthiazol-5-yl)phenyl)ethyl)pyrrolidine-2-carboxamide] | A (“A” indicates maximum degradation ≥75%)
– | < 50% | < 10 nM | Cc1ncsc1-c1ccc([C@H](C)NC(=O)[C@@H]2C[C@@H](O)CN2C(=O)C(C(C)C)n2cc(N3CC4(CN(c5ccc6cc(-c7ccccc7O)nnc6c5)C4)C3)cn2)cc1 (stereo in doubt) [Compound 257, (2S,4R)-4-hydroxy-1-((R)-2-(4-(6-(3-(2-hydroxyphenyl)cinnolin-7-yl)-2,6-diazaspiro[3.3]heptan-2-yl)-1H-pyrazol-1-yl)-3-methylbutanoyl)-N-((S)-1-(4-(4-methylthiazol-5-yl)phenyl)ethyl)pyrrolidine-2-carboxamide] | A (“A” indicates maximum degradation ≥75%)
